# Data published in patent US20100298141A1, “SUBSTITUTED PYRIDINE N-OXIDE HERBICIDES” (E. I. DU PONT DE NEMOURS AND COMPANY, priority 2007, published 2010).
# What was measured:
# [1] = system: Surinam grass; test: Test C pre-/postemergence test; assay type: in vivo, Brachiaria decumbens
# How it was run: (§1)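 Compounds in a non-phytotoxic solvent with surfactant applied preemergence to seeded pots and, at the same time, postemergence to plants 2–18 cm tall (1- to 4-leaf stage). Paddy tests: pots flooded to 3 cm, compound applied into the water, depth held throughout.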
# [2] = system: wheat; test: Test A pre-/postemergence greenhouse test; assay type: in vivo, Triticum aestivum; settings: for Plant response rating, Wheat: 0 to 100 scale where 0 is no effect and 100 is complete control; for Wheat plant response rating: 0 to 100 scale
# How it was run: (§2)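 Sowing in loam/sand; same-day pre (directed soil spray) and post (foliar, 1–2 leaf, 2–10 cm) treatment with surfactant-containing non-phytotoxic solvent formulation; ~10 days in greenhouse; eye-scored injury against untreated plants.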
# [3] = system: woolly cupgrass; test: Test C pre-/postemergence test; assay type: in vivo, Eriochloa villosa
# How it was run: as §1
# [4] = system: blackgrass; test: Test C pre-/postemergence test; assay type: in vivo, Alopecurus myosuroides
# How it was run: as §1
# [5] = system: giant foxtail; test: Test A pre-/postemergence greenhouse test; assay type: in vivo, Setaria faberi; settings: for Plant response rating, Foxtail, Giant: 0 to 100 scale where 0 is no effect and 100 is complete control; for Foxtail, Giant plant response rating: 0 to 100 scale
# How it was run: as §2
# [6] = system: downy brome; test: Test C pre-/postemergence test; assay type: in vivo, Bromus tectorum
# How it was run: as §1
# [7] = system: cocklebur; test: Test C pre-/postemergence test; assay type: in vivo, Xanthium strumarium
# How it was run: as §1
# [8] = system: velvetleaf; test: Test C pre-/postemergence test; assay type: in vivo, Abutilon theophrasti
# How it was run: as §1
# [9] = system: common ragweed; test: Test C pre-/postemergence test; assay type: in vivo, Ambrosia elation
# How it was run: as §1
# [10] = system: eastern black nightshade; test: Test C pre-/postemergence test; assay type: in vivo, Solanum ptycanthum
# Excerpt: Seeds of plant species selected from blackgrass (Alopecurus myosuroides), downy brome (Bromus tectorum), green foxtail (Setaria viridis), Italian ryegrass (Lolium multiflorum), wheat (Triticum aestivum), wild oat (Avena fatua), catchweed bedstraw (Galium aparine), Russian thistle (Salsola kali), […] (Cynodon dactylon), Surinam grass (Brachiaria decumbens), cocklebur (Xanthium strumarium), corn (Zea mays), crabgrass (Digitaria sanguinalis), woolly cupgrass (Eriochloa villosa), giant foxtail (Setaria faberii), Goosegrass (Eleusin indica), johnsongrass (Sorghum halepense), kochia (Kochia scoparia), lambsquarters (Chenopodium album), morningglory (Ipomoea coccinea), eastern black nightshade (Solanum ptycanthum), yellow nutsedge (Cyperus esculentus), pigweed (Amaranthus retroflexus), common ragweed (Ambrosia elation), soybean (Glycine max), common (oilseed) sunflower (Helianthus annuus), and velvetleaf (Abutilon theophrasti) were planted and treated preemergence with test chemicals formulated in a non-phytotoxic solvent mixture which included a surfactant. At the same time, plants selected from these crop and weed species and also winter barley (Hordeum vulgare), canarygrass (Phalaris minor), and chickweed (Stellaria media) were treated with postemergence applications of some of the test chemicals formulated in the same manner. Plants ranged in height from 2 to 18 cm (1- to 4-leaf stage) for postemergence treatments. […] At time of treatment, test pots were flooded to 3 cm above the soil surface, treated by application of test compounds directly to the paddy water, and then maintained at that water depth for the duration of the test. […] A dash (-) response means no test result.
# [11] = system: redroot pigweed; test: Test A pre-/postemergence greenhouse test; assay type: in vivo, Amaranthus retroflexus; settings: for Plant response rating, Pigweed: 0 to 100 scale where 0 is no effect and 100 is complete control; for Pigweed plant response rating: 0 to 100 scale
# How it was run: as §2
# [12] = system: lambsquarters; test: Test C pre-/postemergence test; assay type: in vivo, Chenopodium album
# How it was run: as §1
# [13] = system: giant foxtail; test: Test C pre-/postemergence test; assay type: in vivo, Setaria faberii
# How it was run: as §1
# [14] = system: morningglory; test: Test A pre-/postemergence greenhouse test; assay type: in vivo, Ipomoea spp.; settings: for Plant response rating, Morningglory: 0 to 100 scale where 0 is no effect and 100 is complete control; for Morningglory plant response rating: 0 to 100 scale
# How it was run: as §2
# [15] = system: kochia; test: Test C pre-/postemergence test; assay type: in vivo, Kochia scoparia
# How it was run: as §1
# [16] = system: common (oilseed) sunflower; test: Test C pre-/postemergence test; assay type: in vivo, Helianthus annuus
# How it was run: as §1
# [17] = system: wild oat; test: Test C pre-/postemergence test; assay type: in vivo, Avena fatua
# How it was run: as §1
# [18] = system: wheat; test: Test C pre-/postemergence test; assay type: in vivo, Triticum aestivum
# How it was run: as §1
# [19] = 62 g ai/ha, Preemergence, scale 0 to 100
# [20] = 125 g ai/ha, preemergence, scale 0 (no effect) to 100 (complete control)
# [21] = Preemergence, 31 g ai/ha, scale 0 to 100 (0 no effect, 100 complete control)
# [22] = preemergence, 250 g ai/ha, scale 0 (no effect) to 100 (complete control)
# [23] = Postemergence, 500 g ai/ha, 0 is no effect, 100 is complete control
# [24] = Preemergence, 125 g ai/ha, 0 no effect, 100 complete control
smiles,measurement,setting,value
Cc1cc([S+]([O-])Cc2c(C(F)(F)F)nn(C)c2OCC(F)(F)F)[n+]([O-])cc1Cl (stereo not shown) [Compound 70],Surinam Grass plant response rating,[1]; [19],85
same,Surinam Grass plant response rating,[1]; [20],90
same,"Plant response rating, Surinam Grass",[1]; [21],65
same,Surinam Grass plant response rating,[1]; [22],100
same,"Plant response rating, Wheat","[2]; Postemergence, 125 g ai/ha",70
same,Wheat plant response rating,[2]; [23],70
same,Wheat plant response rating,[2]; [24],50
same,"Plant response rating, Wheat","[2]; Preemergence, 500 g ai/ha",90
same,"Cupgrass, Woolly plant response rating",[3]; [19],98
same,"Cupgrass, Woolly plant response rating",[3]; [20],100
same,"Plant response rating, Cupgrass, Woolly",[3]; [21],95
same,"Cupgrass, Woolly plant response rating",[3]; [22],100
same,Blackgrass plant response rating,[4]; [19],100
same,Blackgrass plant response rating,[4]; [20],100
same,"Plant response rating, Blackgrass",[4]; [21],100
same,Blackgrass plant response rating,[4]; [22],100
same,"Plant response rating, Foxtail, Giant","[5]; Postemergence, 125 g ai/ha",60
same,"Foxtail, Giant plant response rating",[5]; [23],90
same,"Foxtail, Giant plant response rating",[5]; [24],100
same,"Plant response rating, Foxtail, Giant","[5]; Preemergence, 500 g ai/ha",100
same,"Bromegrass, Downy plant response rating",[6]; [19],80
same,"Bromegrass, Downy plant response rating",[6]; [20],100
same,"Bromegrass, Downy plant response rating",[6]; [22],100
same,Cocklebur plant response rating,[7]; [19],0
same,Cocklebur plant response rating,[7]; [20],0
same,"Plant response rating, Cocklebur",[7]; [21],0
same,Cocklebur plant response rating,[7]; [22],0
same,Velvetleaf plant response rating,[8]; [19],85
same,Velvetleaf plant response rating,[8]; [20],100
same,"Plant response rating, Velvetleaf",[8]; [21],35
same,Velvetleaf plant response rating,[8]; [22],100
same,Ragweed plant response rating,[9]; [19],80
same,Ragweed plant response rating,[9]; [20],80
same,"Plant response rating, Ragweed",[9]; [21],0
same,Ragweed plant response rating,[9]; [22],100
same,Nightshade plant response rating,[10]; [19],100
same,Nightshade plant response rating,[10]; [20],100
same,"Plant response rating, Nightshade",[10]; [21],100
same,Nightshade plant response rating,[10]; [22],100
same,"Plant response rating, Pigweed","[11]; Postemergence, 125 g ai/ha",40
same,Pigweed plant response rating,[11]; [23],80
same,Pigweed plant response rating,[11]; [24],90
same,"Plant response rating, Pigweed","[11]; Preemergence, 500 g ai/ha",100
same,Lambsquarters plant response rating,[12]; [19],100
same,Lambsquarters plant response rating,[12]; [20],100
same,"Plant response rating, Lambsquarters",[12]; [21],100
same,Lambsquarters plant response rating,[12]; [22],100
same,"Foxtail, Giant plant response rating",[13]; [19],100
same,"Plant response rating, Foxtail, Giant",[13]; [21],90
same,"Foxtail, Giant plant response rating",[13]; [22],100
same,"Plant response rating, Morningglory","[14]; Postemergence, 125 g ai/ha",30
same,Morningglory plant response rating,[14]; [23],70
same,Morningglory plant response rating,[14]; [24],30
same,"Plant response rating, Morningglory","[14]; Preemergence, 500 g ai/ha",100
same,Kochia plant response rating,[15]; [19],100
same,Kochia plant response rating,[15]; [20],100
same,"Plant response rating, Kochia",[15]; [21],100
same,Kochia plant response rating,[15]; [22],100
same,Sunflower plant response rating,[16]; [19],45
same,Sunflower plant response rating,[16]; [20],45
same,"Plant response rating, Sunflower",[16]; [21],0
same,Sunflower plant response rating,[16]; [22],80
same,"Oat, Wild plant response rating",[17]; [19],95
same,"Oat, Wild plant response rating",[17]; [20],100
same,"Plant response rating, Oat, Wild",[17]; [21],70
same,"Oat, Wild plant response rating",[17]; [22],100
same,Wheat plant response rating,[18]; [19],60
same,Wheat plant response rating,[18]; [20],95
same,"Plant response rating, Wheat",[18]; [21],15
same,Wheat plant response rating,[18]; [22],95
